Test results: the supplement of paper PMC11616607

Assays:
Experiment in all cases: drug sensitivity score (DSS) from 5-point dose-response viability curve (DSS (area-under-curve based score)); higher = more sensitive (stronger growth inhibition or killing); extreme values may be limits of the assay
Details in all cases: exposure time: 72 h; concentration range: 5 concentrations over 10,000-fold range
CAOV3 = test system: CAOV3
Procedure, shortened: (§1)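 Drug sensitivity scores were calculated in Breeze software for each cell line and drug pair; higher scores indicate more sensitivity. A score of zero indicates no response. The underlying assay used 384-well plates: drugs were placed by an Echo 550 acoustic dispenser at five concentrations spanning a 10,000-fold range, 1,500 ovarian cancer or normal ovarian cells were added per well, and cells were kept 3 days at 37°C, 5% CO2. Viability was then measured with CellTiter-Glo luminescence on a PHERAstar FS.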

COV318 = test system: COV318
Procedure, shortened: as §1

COV362 = test system: COV362
Procedure, shortened: as §1

HOSE1C = test system: HOSE1C
Procedure, shortened: as §1

HOSE2C = test system: HOSE2C
Procedure, shortened: as §1

JHOS2 = test system: JHOS2
Procedure, shortened: as §1

Kuramochi = test system: Kuramochi
Procedure, shortened: as §1

OV90 = test system: OV90
Procedure, shortened: as §1

OVCAR4 = test system: OVCAR4
Procedure, shortened: as §1

OVCAR5 = test system: OVCAR5
Procedure, shortened: as §1

OVCAR8 = test system: OVCAR8
Procedure, shortened: as §1

Ovsaho = test system: Ovsaho
Procedure, shortened: as §1

Row | SMILES | drug sensitivity score (CAOV3) | drug sensitivity score (COV318) | drug sensitivity score (COV362) | drug sensitivity score (HOSE1C) | drug sensitivity score (HOSE2C) | drug sensitivity score (JHOS2) | drug sensitivity score (Kuramochi) | drug sensitivity score (OV90) | drug sensitivity score (OVCAR4) | drug sensitivity score (OVCAR5) | drug sensitivity score (OVCAR8) | drug sensitivity score (Ovsaho)
1 | Cc1ccc(NC(=O)c2ccc(CN3CCN(C)CC3)cc2)cc1Nc1nc(-c2cccnc2)cs1 [Masitinib] | 0.2 | 1.7 | 1.4 | 1.8 | 1.3 | 1.7 | 3.4 | 5.2 | 2.1 | 4.4 | 4.1 | 0.8
2 | CCN(c1cc(-c2ccc(CN3CCOCC3)cc2)cc(C(=O)NCc2c(C)cc(C)[nH]c2=O)c1C)C1CCOCC1 [Tazemetostat] | 0 | 0 | 2.3 | 0 | 0 | 2.1 | 0 | 0 | 0.1 | 0 | 0 | 0
3 | O[C@H]1CC[C@H](Nc2ncc3nc(Nc4c(F)cc(F)cc4F)n([C@H]4CCOC4)c3n2)CC1 [Tanzisertib] | 0 | 0 | 0 | 0 | 0 | 0 | 0.8 | 0 | 0 | 1.9 | 0 | 0.4
4 | Nc1nc(NC2CC2)cc(-c2cccc(Cl)c2Cl)n1 [TH588] | 1.9 | 0.9 | 0.4 | 0 | 0 | 0 | 1.6 | 0 | 1.8 | 1.9 | 2.4 | 3.7
5 | COc1cc(N2CCN(C)CC2)ccc1Nc1nccc(-c2cn(C)c3cnccc23)n1 [AZ191] | 0 | 4.1 | 2.2 | 1 | 1.9 | 4.4 | 1.4 | 5.9 | 0.6 | 2 | 2.2 | 1.6
6 | CCc1cnn2c(NCc3ccc[n+]([O-])c3)cc(N3CCCC[C@H]3CCO)nc12 [Dinaciclib] | 17.9 | 15.9 | 13.6 | 28 | 15.4 | 19 | 13.1 | 21.2 | 15.7 | 17.9 | 20.7 | 17.9
7 | Cc1nc(NC(=O)N2CCC[C@H]2C(N)=O)sc1-c1ccnc(C(C)(C)C(F)(F)F)c1 [Alpelisib] | 3.7 | 0.5 | 0 | 2.2 | 3.2 | 0.6 | 2.4 | 1 | 0.9 | 4.2 | 0.3 | 0.4
8 | Cn1cc(CNCC2CCN(c3ncc(C(=O)NO)cn3)CC2)c2ccccc21 [Quisinostat] | 11.5 | 4.7 | 4.5 | 22.9 | 19 | 8.1 | 9.2 | 14.6 | 8 | 19.2 | 18.6 | 9
9 | CNc1nc(Nc2cn(C(C)(C)C#N)nc2C)ncc1C(F)(F)F [GNE-0877] | 0 | 0 | 0 | 0 | 0 | 0 | 0 | 0 | 0 | 0 | 0 | 0
10 | Nc1ncnc2c1c(COc1cccc(Cl)c1)nn2C1CCOCC1 | 0 | 0 | 0 | 0 | 0 | 0 | 0.3 | 0 | 0 | 0.6 | 0 | 0
11 | CCS(=O)(=O)N1CC(CC#N)(n2cc(-c3ncnc4[nH]ccc34)cn2)C1 [Baricitinib] | 0 | 0 | 0 | 0 | 0 | 0 | 0 | 0 | 0 | 0 | 0 | 0
12 | CC(=O)c1cnc2ccc(-c3cc(Cl)c(O)c(Cl)c3)nc2c1N[C@H]1CC[C@H](CN(C)C)CC1 [OTS167] | 13.2 | 15.1 | 5.4 | 19.8 | 12.4 | 13.4 | 10.6 | 7.5 | 7.5 | 11.8 | 13.6 | 9.1
13 | CCCc1cc(C)[nH]c(=O)c1CNC(=O)c1cc(-c2ccnc(N3CCN(C)CC3)c2)cc2c1cnn2C(C)C [GSK343] | 0 | 0 | 0 | 0 | 0 | 0 | 0 | 0 | 0 | 0 | 0 | 0
14 | CO[C@@H](C(=O)N1Cc2[nH]nc(NC(=O)c3ccc(N4CCN(C)CC4)cc3)c2C1)c1ccccc1 [Danusertib] | 23.5 | 4.3 | 5.6 | 7.4 | 12.5 | 3.1 | 11.1 | 4.9 | 8.7 | 7.2 | 8.7 | 14.7
15 | CNS(=O)(=O)Nc1nccc(Cc2c(C)c3ccc(Oc4ncccn4)cc3oc2=O)c1F | 3.3 | 0 | 0 | 0 | 0 | 0 | 0 | 6.3 | 1.7 | 0 | 0 | 0.3
16 | Cc1cc(C(C)Nc2ccccc2)c2nc(N3CCOCC3)cc(=O)n2c1 (stereo not given) [TGX-221] | 0.8 | 0 | 0.3 | 0 | 0 | 0 | 7.9 | 0.2 | 1.7 | 2.1 | 1.2 | 7.8
17 | C#Cc1cccc(Nc2ncnc3cc(OCCOC)c(OCCOC)cc23)c1 [Erlotinib] | 7.5 | 0.8 | 0.1 | 0 | 0.3 | 3 | 1.6 | 1.5 | 2 | 4.4 | 2.5 | 4.8
18 | COc1ncc(-c2ccc3nccc(-c4ccnnc4)c3c2)cc1NS(=O)(=O)c1ccc(F)cc1F [Omipalisib] | 16.9 | 10.7 | 6.7 | 16.6 | 18.1 | 10.1 | 16.2 | 8.6 | 12.7 | 18.9 | 13.3 | 10.4
19 | Cc1cccc(CC(=O)N2CCc3c2ccc(-c2cn(C)c4ncnc(N)c24)c3F)n1 | 0.4 | 0 | 0 | 0 | 0 | 0 | 0.2 | 0 | 1.1 | 0 | 1.5 | 0
20 | COc1cc(OC)c(/C=C/S(=O)(=O)Cc2ccc(OC)c(NCC(=O)O)c2)c(OC)c1 [Rigosertib] | 23.4 | 11.7 | 9.8 | 28.4 | 20.8 | 11.5 | 14.9 | 20.2 | 10.9 | 17 | 25.4 | 18.9
21 | COc1cc2c(Oc3ccc4[nH]c(C)cc4c3F)ncnc2cc1OCCCN1CCCC1 [Cediranib] | 0 | 0.2 | 0 | 0 | 0 | 0 | 0 | 0 | 0.5 | 0 | 0 | 0.7
22 | NC(=O)/C(=C/n1cnc(-c2cc(C(F)(F)F)cc(C(F)(F)F)c2)n1)c1cncnc1 [Eltanexor] | 18.9 | 7.5 | 10.9 | 34.6 | 15.7 | 19 | 10.9 | 13.2 | 13.7 | 14.8 | 21.5 | 19.3
23 | Cc1ncc(-c2ccnc(Nc3ccc(S(C)(=O)=O)cc3)n2)n1C(C)C [AZD-5438] | 4.4 | 2.9 | 2.8 | 7 | 2 | 7.9 | 6.8 | 4.4 | 2.9 | 9.2 | 8.4 | 8.1
24 | Cc1ccc(-c2cc(C(F)(F)F)nn2-c2ccc(S(N)(=O)=O)cc2)cc1 [Celecoxib] | 0 | 0 | 0 | 0 | 0 | 0 | 0 | 0 | 0 | 0 | 0 | 0
25 | CNC(=O)c1ccc2cc([C@@]3(O)CCn4cncc43)ccc2c1 [Orteronel] | 0 | 0 | 0 | 0 | 0 | 0 | 0 | 0 | 0 | 0 | 0 | 0
26 | CO[C@H](C(=O)[C@@H](O)[C@@H](C)O)[C@@H]1Cc2cc3cc(O[C@H]4C[C@@H](O[C@@H]5C[C@@H](O)[C@H](O)[C@@H](C)O5)[C@H](O)[C@@H](C)O4)c(C)c(O)c3c(O)c2C(=O)[C@H]1O[C@H]1C[C@@H](O[C@@H]2C[C@@H](O)[C@@H](O[C@@H]3C[C@](C)(O)[C@H](O)[C@@H](C)O3)[C@@H](C)O2)[C@H](O)[C@@H](C)O1 [Plicamycin] | 8.8 | 0 | 2.9 | 0 | 0 | 0 | 0 | 19.1 | 5.7 | 16.5 | 19.4 | 0.1
27 | Oc1ncnc2[nH]ncc12 [Allopurinol] | 0 | 0 | 0 | 0 | 0 | 0 | 0 | 0.3 | 0.2 | 0 | 0 | 0
28 | COC(=O)N[C@@H](C)CNc1nccc(-c2cn(C(C)C)nc2-c2cc(Cl)cc(NS(C)(=O)=O)c2F)n1 [Encorafenib] | 0.3 | 0 | 0 | 0 | 0.5 | 0.1 | 0 | 5.6 | 0 | 0 | 0 | 0.1
29 | Cn1cncc1[C@@](N)(c1ccc(Cl)cc1)c1ccc2c(c1)c(-c1cccc(Cl)c1)cc(=O)n2C [Tipifarnib] | 3.1 | 5.2 | 1.7 | 9.2 | 3 | 3.1 | 6.8 | 4.7 | 4.7 | 4.3 | 4.2 | 7.5
30 | O=C(Nc1cccc(Nc2ncc(Br)c(NCCc3cnc[nH]3)n2)c1)N1CCCC1 [BX-912] | 10.3 | 0.4 | 1.3 | 4.5 | 8 | 2.5 | 1.4 | 7.4 | 3.7 | 2.4 | 4.7 | 3.5
